Drawing on ChEMBL document CHEMBL1201862, “PubChem BioAssay data set” (2004), this text covers AC50, IC50 and CC50 for 5 compounds.

The nature of test [1]: P. falciparum Dd2 growth inhibitors, dose response, SYBR Green, cherry-picked samples (AID 1159567). The test is classed as functional, cell-based.
A short description of test [2]: antimalarial activity against Dd2 parasites – SYBR Green fluorescence, erythrocytes, dry powder, set 2, dose response (AID 1159574). The class given is functional, cell-based.
Test [3] can be described thus: Dd2 malaria parasite growth inhibition potency – SYBR Green, dry powder samples, dose response (AID 1159566).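 Further: potency for growth inhibition with lower SYBR green DNA signal.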 The test is classed as functional, cell-based.
The nature of test [4]: growth inhibition of PfATP4-mutant resistant parasites – NITD609-resistant line, SYBR Green, dry powder, dose response (AID 1159571).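 Further: parasites synchronized at ring stage by sorbitol before testing.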 The test is classed as functional, cell-based.
The nature of test [5]: growth inhibition of yeast DHODH-expressing 3D7 parasites – SYBR Green, dry powder samples, dose response (AID 1159570).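 Further: parasite growth measured after 72 hours of compound exposure.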 The test is classed as functional, cell-based.
The target in another test is Phospholipase D2 (Homo sapiens, UniProt O14939). Description: PLD2 Cellular Concentration Response Study. The test is classed as functional.
Chain of Phospholipase D2 (O14939 whole entry): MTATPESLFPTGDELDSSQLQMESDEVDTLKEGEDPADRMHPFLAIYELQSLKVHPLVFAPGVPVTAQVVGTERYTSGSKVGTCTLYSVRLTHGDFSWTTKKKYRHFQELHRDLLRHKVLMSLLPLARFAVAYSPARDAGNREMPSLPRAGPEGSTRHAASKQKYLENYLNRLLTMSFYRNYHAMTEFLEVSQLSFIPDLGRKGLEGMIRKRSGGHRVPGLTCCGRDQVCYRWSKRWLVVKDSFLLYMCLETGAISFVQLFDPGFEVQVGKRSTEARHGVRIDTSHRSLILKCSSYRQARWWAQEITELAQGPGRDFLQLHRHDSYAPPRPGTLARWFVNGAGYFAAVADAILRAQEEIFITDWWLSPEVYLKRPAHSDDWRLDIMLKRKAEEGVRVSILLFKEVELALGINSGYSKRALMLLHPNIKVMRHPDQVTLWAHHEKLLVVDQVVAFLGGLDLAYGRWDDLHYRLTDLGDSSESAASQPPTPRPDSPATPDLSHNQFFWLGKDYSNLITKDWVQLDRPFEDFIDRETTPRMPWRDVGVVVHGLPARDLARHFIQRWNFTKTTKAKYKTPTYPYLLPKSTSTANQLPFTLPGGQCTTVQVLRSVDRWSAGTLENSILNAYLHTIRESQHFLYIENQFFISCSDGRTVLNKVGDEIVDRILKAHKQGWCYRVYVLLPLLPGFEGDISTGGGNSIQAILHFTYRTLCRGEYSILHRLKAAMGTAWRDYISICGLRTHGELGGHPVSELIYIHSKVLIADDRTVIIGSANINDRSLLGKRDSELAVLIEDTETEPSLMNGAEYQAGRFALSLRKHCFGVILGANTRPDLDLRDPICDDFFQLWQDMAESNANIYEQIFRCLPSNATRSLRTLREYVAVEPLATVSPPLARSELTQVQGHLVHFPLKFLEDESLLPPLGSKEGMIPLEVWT
For the next test, the target named is Phospholipase D1 (Homo sapiens, UniProt Q13393). Description: PLD1 Cellular Concentration Response Study. The class given is functional.
Chain of Phospholipase D1 (Q13393 whole entry): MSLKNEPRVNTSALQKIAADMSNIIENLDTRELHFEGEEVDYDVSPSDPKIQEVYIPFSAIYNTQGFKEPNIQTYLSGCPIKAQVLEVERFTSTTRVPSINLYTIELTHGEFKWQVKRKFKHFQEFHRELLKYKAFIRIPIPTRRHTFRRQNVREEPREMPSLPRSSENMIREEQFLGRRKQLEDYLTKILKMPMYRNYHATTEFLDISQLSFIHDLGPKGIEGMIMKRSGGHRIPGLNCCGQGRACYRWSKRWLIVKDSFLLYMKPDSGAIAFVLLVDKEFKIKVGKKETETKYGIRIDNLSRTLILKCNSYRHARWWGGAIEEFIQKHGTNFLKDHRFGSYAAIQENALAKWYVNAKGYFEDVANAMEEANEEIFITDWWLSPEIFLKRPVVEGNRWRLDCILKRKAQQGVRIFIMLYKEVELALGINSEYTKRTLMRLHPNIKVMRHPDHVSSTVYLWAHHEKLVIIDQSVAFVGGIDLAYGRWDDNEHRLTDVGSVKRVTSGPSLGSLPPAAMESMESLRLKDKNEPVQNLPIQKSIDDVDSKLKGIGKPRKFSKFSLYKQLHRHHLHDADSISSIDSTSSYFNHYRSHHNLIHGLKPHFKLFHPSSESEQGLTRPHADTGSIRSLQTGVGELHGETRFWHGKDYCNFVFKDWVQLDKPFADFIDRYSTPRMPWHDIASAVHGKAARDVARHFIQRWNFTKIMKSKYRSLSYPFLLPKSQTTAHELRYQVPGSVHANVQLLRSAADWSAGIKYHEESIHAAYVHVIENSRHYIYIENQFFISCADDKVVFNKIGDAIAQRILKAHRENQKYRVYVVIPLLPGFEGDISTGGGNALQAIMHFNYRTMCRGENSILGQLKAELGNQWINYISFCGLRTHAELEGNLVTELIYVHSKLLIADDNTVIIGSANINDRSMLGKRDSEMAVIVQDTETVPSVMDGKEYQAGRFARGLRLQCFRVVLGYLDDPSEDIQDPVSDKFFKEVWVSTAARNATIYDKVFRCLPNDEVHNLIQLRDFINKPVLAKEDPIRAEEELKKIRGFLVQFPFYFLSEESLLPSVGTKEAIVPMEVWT
In test [6] the target is T1, Low molecular weight phosphotyrosine protein phosphatase (Homo sapiens, UniProt P24666).
T1 sequence (P24666 whole entry): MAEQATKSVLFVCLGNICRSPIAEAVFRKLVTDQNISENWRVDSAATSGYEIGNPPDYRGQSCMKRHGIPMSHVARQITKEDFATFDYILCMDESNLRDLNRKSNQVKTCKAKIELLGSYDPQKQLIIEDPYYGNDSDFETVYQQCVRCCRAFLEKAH
The test is described as follows: inhibition of LMPTP-A enzymatic activity – biochemical, OMFP substrate, fluorescence intensity, set 2, dose response (AID 743307). The class given is functional.

Test [7] addresses T1, Low molecular weight phosphotyrosine protein phosphatase. The test is described as follows: inhibition of human LMPTP enzyme activity – biochemical, absorbance, pNPP substrate, LMPTP-A isoform, set 2, orthogonal assay, dose response (AID 743308). The class given is functional.
Another test deals with Vero. Description: mammalian cell viability reduction – secondary assay, cytotoxicity control for West Nile virus antiviral project, dose response (AID 1650). The test is classed as functional. Particulars: Chlorocebus sabaeus.
A further test has as its system HEK293. The test is described as follows: cells. Particulars: Homo sapiens. The test is classed as functional, cell-based.
For test [8], the target named is E3 ubiquitin-protein ligase UHRF1 (Homo sapiens, UniProt Q96T88). The test is described as follows: Counterscreen for inhibitors of 5-meCpG-binding domain protein 2 (MBD2): TRFRET-based biochemical high throughput dose response assay to identify inhibitors of binding of ubiquitin-like with PHD and ring finger domains 1 (UHRF1) to methylated oligonucleotide. (In general: A counterscreen serves to expose hits that act by an unwanted route or on another target.)
Chain of E3 ubiquitin-protein ligase UHRF1 (Q96T88 whole entry, the tested form may be a part): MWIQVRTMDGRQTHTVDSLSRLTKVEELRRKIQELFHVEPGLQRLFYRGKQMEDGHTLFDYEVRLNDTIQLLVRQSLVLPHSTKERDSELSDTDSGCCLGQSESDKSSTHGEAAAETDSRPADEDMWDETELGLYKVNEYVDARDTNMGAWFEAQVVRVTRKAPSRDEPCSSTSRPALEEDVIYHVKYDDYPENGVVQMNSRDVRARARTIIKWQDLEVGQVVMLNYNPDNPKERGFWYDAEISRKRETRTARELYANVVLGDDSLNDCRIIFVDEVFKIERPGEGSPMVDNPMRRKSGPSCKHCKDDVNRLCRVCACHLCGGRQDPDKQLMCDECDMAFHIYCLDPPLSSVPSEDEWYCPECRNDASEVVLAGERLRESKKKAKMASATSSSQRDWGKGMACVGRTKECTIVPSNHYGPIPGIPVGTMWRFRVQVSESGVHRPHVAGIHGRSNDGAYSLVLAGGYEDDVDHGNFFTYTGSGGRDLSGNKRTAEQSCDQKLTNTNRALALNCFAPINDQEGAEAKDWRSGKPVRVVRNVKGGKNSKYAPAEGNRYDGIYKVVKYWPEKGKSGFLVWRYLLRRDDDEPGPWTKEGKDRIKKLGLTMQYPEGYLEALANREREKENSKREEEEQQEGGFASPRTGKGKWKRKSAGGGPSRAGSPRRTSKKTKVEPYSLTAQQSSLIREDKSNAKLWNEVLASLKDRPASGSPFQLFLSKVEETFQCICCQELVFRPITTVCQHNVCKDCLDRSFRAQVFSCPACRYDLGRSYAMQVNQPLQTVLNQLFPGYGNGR

For test [9], the target named is T2, DNA repair protein RAD52 homolog (Homo sapiens, UniProt P43351).
T2 sequence (P43351 whole entry): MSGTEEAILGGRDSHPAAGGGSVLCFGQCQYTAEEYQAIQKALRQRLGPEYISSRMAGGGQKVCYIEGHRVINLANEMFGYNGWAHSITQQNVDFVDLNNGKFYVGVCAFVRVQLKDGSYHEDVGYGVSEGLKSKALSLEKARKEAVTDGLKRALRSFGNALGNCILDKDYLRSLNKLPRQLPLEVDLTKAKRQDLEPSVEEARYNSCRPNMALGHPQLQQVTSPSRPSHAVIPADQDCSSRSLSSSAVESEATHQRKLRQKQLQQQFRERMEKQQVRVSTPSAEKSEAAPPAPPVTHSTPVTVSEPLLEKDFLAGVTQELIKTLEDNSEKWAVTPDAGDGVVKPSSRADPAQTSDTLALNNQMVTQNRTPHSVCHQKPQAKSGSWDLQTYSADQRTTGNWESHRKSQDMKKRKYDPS
The class given is functional, biochemical.

Test [10] has as its target T3, DNA repair and recombination protein RAD54-like (Homo sapiens, UniProt Q92698).
T3 sequence (Q92698 whole entry): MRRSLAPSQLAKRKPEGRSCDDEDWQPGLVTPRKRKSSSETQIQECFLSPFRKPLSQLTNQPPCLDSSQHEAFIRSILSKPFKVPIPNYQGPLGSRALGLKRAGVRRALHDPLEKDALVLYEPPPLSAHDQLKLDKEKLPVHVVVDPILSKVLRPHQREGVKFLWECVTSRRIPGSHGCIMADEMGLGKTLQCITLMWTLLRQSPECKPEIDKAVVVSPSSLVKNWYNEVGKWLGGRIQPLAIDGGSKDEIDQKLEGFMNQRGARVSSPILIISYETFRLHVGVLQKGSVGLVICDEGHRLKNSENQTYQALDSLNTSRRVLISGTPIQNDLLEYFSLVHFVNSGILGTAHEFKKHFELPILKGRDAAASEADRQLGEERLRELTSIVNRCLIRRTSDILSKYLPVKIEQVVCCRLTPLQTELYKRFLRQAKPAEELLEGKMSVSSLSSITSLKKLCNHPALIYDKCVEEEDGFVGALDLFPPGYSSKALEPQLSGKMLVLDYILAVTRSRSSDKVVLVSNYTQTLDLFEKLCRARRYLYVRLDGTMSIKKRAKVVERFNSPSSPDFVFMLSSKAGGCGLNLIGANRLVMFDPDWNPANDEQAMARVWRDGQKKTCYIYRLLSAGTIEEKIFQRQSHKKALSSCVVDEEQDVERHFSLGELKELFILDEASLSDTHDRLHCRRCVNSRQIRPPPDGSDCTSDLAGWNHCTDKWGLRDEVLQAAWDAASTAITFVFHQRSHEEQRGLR
The test is described as follows: RAD54 Holliday junction migration blockers – biochemical, fluorescence, cherry-picked samples, dose series, confirmation (AID 651657). The class given is functional.

Test [11] concerns the target T4, Nuclear receptor subfamily 0 group B member 1 (Homo sapiens, UniProt P51843).
T4 sequence (P51843 whole entry): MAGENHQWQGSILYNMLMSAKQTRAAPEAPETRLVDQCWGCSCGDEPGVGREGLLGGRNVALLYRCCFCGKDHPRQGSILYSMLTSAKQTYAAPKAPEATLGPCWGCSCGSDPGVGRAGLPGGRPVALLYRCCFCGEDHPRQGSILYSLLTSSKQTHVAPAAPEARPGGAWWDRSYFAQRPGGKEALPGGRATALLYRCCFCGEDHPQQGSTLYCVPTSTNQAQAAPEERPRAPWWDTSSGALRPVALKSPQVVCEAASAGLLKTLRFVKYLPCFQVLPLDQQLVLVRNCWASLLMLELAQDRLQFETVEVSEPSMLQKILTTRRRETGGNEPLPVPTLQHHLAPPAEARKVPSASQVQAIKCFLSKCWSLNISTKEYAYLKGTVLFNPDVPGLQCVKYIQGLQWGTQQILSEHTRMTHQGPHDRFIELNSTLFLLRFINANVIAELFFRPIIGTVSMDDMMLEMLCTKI
The test is described as follows: Luminescence-based cell-based high throughput dose response assay for inhibitors of the orphan nuclear receptor subfamily 0, group B, member 1 (DAX1; NR0B1). [Related pubchem assays (depositor defined):AID504766, AID504790]. The class given is functional.

The target of test [12] is G-protein coupled receptor 183 (Homo sapiens, UniProt P32249). Description: SAR confirmation of small molecule antagonists of the EBI2 receptor via a luminescent beta-arrestin assa. The class given is functional.
Chain of G-protein coupled receptor 183 (P32249 whole entry): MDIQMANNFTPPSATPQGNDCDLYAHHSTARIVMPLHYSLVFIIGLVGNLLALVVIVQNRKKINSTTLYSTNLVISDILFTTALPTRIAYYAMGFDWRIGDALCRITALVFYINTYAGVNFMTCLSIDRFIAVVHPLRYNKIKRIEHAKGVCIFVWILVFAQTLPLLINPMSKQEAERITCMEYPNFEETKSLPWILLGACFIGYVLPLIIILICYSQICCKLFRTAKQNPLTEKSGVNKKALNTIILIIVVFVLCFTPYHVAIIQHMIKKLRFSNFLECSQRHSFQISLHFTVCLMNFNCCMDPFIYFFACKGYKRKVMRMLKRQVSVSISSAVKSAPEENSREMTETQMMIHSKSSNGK

Calls of active or inactive are those of the source.

What is called AC50 is the midpoint of the concentration-response curve, whichever way the signal moves. Take `O=C(c1ccccc1F)N1CC(=O)N2[C@H](C1)[C@@H](c1ccc(-c3cccnc3)cc1)[C@@H]2CO`: the concentration at half-maximal activity (AC50) was < 0.3 µM (active) in [1]; 0.0331 µM (active) in [2]; 0.00824 µM (active) in test [3]; 0.0146 µM (active) in test [4]; 0.0369 µM (active) in [5].
A word on the IC50: it is the midpoint of a concentration-inhibition curve. `O=C(NCCN1CCC2(CC1)C(=O)NCN2Cc1ccccc1F)c1ccc2ccccc2c1`: the IC50 at Phospholipase D2 was 0.2 µM (active); at Phospholipase D1, 4.59 µM (active).
For `CC(C)Nc1nc(-c2ccccc2)nc2ccccc12`, the IC50 was 15 µM (active) in test [6] and 35.8 µM (inactive) in test [7].
Usually CC50 stands for the concentration giving 50% cytotoxicity. `CCOC(=O)c1cnc2c(ccc3ccccc32)c1NCCCN(C)C`: the CC50 in the test with Vero is > 100 µM (active). The IC50 in the test on HEK293 was > 67.5 µM (inactive); in test [8], 35.7 µM (inactive); in test [11], > 67.5 µM (inactive). The AC50 in test [9] is 1.38 µM (active); in test [10], 3.38 µM (active).
`O=C(/C=C/c1ccc(F)cc1)N1CCN(S(=O)(=O)c2ccc(Cl)cc2)CC1`: in [12], the IC50 was 0.00548 µM (active).
